Data: PMC9059126, “Structure-Based Design of a Novel Class of Autotaxin Inhibitors Based on Endogenous Allosteric Modulators” (Journal of Medicinal Chemistry, 2022)

How the values were obtained:
[1] = biological target: T1, ATX (Rattus norvegicus, UniProt Q64610); experiment: Choline oxidase-coupled choline-release assay of LPC hydrolysis by ATX; settings: for IC50 / Residual Activity (%): 20 nM ATX; for inhibition at 100 µM: read-out: %Inhibition at 100 μM
[2] = test system: LPA1-HA-expressing HeLa-Flp-In cells; experiment: Confocal microscopy for LPA1 internalization; format: cell-based, Human; settings: 1 μM 18:1 LPC, 20 nM ATX, 15 min
Description: Human LPA1 cDNA was amplified by PCR to remove its stop codon and add the restriction sites for BamHI and XhoI, after which it was subcloned in an in-house produced pDNA5.1-HA vector. 0.2 μg of the resulting vector and 1.8 μg of pOG44 Flp-Recombinase Expression Vector (Invitrogen) were incubated with 6 μL of Fugene6 (Invitrogen) in 200 μL of OptiMEM (Gibco) for 30 min, after which the mix was added to previously produced HeLa-Flp-In cells.[43] Their medium was refreshed 24 h later, and selection with 1 μg/mL puromycin was started and maintained with resistant cells.
Serum-starved LPA1-HA-expressing HeLa-Flp-In cells cultured on 24 mm (#1,5) were treated with 1 μM LPC and 20 nM ATX in the presence or absence of 22 or 23 for 15 min in DMEM containing 0.05% fatty acid-free BSA. Subsequently, coverslips were washed and fixed with 4% PFA, permeabilized with 0.1% Triton X-100, and blocked with 2% BSA for 1 h. Incubation with anti-HA antibody (3F10 from Roche Diagnostics; 1:200) was done for 1 h, followed by incubation with donkey anti-rat Alexa Fluor 488-conjugated antibody (A-21208 from Invitrogen; 1:200) for 1 h at room temperature. For confocal microscopy, cells were washed with PBS, mounted with Immnuno-MountTM (Thermo Scientific), visualized on a LEICA TCS-SP5 confocal microscope (63× objective), and analyzed using ImageJ software.

[3] = test system: BJeH fibroblasts; experiment: AKT and ERK phosphorylation by western blotting; format: cell-based; settings: Homo sapiens, 0.25 h, 15 min
Description: 100,000 BJeH cells were seeded in 12-well tissue culture plates and allowed to grow for 24 h in DMEM (GIBCO, Life Technologies) containing 10% FCS (Thermo Scientific) and 100 U mL^–1 streptomycin/penicillin (GIBCO, Life Technologies). Next, they were washed twice with phosphate-buffered saline (PBS) and serum-starved O/N. ATX 20 nM was incubated with inhibitors for 30 min in a serum-free medium containing 0.05% (w/v) fatty acid-free BSA (total volume 1 mL). The medium from the 12-well plates was removed and replaced with 1 mL of the ATX–inhibitor mixture. Cells were stimulated for 15 min, the medium was removed, and plates were immediately frozen on dry ice and stored at −80 °C. For western blotting, cells were washed with cold PBS; lysed in RIPA buffer; supplemented with protease inhibitors (Pierce), 20 mM NaF and 1 mM orthovanadate; and spun down. The protein concentration was measured using a BCA protein assay kit (Pierce), and LDS sample buffer (NuPAGE, Invitrogen) and 1 mM dithiothreitol were added to the lysate. 20 μg of the total protein was loaded on sodium dodecyl sulfate–polyacrylamide gel electrophoresis pre-cast gradient gels (4–12% Nu-Page Bis-Tris, Invitrogen), followed by transfer to a nitrocellulose membrane. Non-specific protein binding was blocked by 5% BSA in PBS-Tween (0.1%); the primary antibodies were phospho-Akt (Ser473), catalogue number: D93, dilution: 1:1,000; phospho-ERK1/2 (Thr202/Tyr204), catalogue number: D13.14.4E, dilution: 1:2,000, from Cell Signaling Technology. They were incubated O/N at 4 °C in PBS–Tween with 5% BSA, containing 0.1% NaN3. Blots were then incubated for 1 h at room temperature with monoclonal anti-β-actin antibody, clone AC-15, dilution: 1:10,000, from Sigma, which was dissolved in PBS–Tween with 5% skimmed milk containing 0.1% NaN3. HRP-conjugated secondary antibodies [goat anti-mouse (Bio-Rad), catalogue number: 1721011; goat anti-rabbit (Pierce), catalogue number: 1858415] were incubated for 1 h at room temperature in PBS–Tween with 2.5% BSA and developed using an ECL Western blot reagent.

[4] = biological target: T1, ATX; experiment: Mechanistic studies: mode of inhibition and Ki from LPC titration; format: biochemical; parameters: made in house
Description: The biochemical studies of ATX lysoPLD activity were performed with ATX. Activity was measured by a coupled reaction with 1 U mL^–1 choline oxidase and 2 U mL^–1 horseradish peroxidase (HRP) and 2 mM homovanillic acid (HVA) (all from Sigma-Aldrich). For the assays, 14:0, 16:0, 18:1, and 20:0 LPC (Avanti Polar Lipids Inc.) were incubated with 20 nM ATX, reaching a final volume of 100 μL of the buffer, which contained 50 mM Tris, 0.01%, 50 mM CaCl2, Triton X-100, pH 7.4. Steady-state choline release was measured at 37 °C by HVA fluorescence at λex/λem = 320/460 nm in Corning 96- or 384-well OptiPlate (Sigma-Aldrich) and with a Pherastar plate reader (BMG Labtech). […] The resulting fluorescence intensity signal over time was used to model all inhibitor concentrations simultaneously using the following formula, where vmax and vmin were fitted for the minimum and maximum relative velocities, respectively, and ci corresponds to the inhibitor concentration for each assay[20] [drawing 1] 1
To statistically determine the chance of each type of inhibition, we calculated the α value in the partial mixed inhibition model (eq 5), where Part defines the partiality of the inhibition, and α > 1 or α = 1 correspond to competitive and non-competitive inhibition modes, respectively. Last, we utilized Akaike’s Information Criterion[42] to assess the significance of the analysis [drawing 5] 5

[5] = biological target: T1, ATX; experiment: Competition with LPA allostery (LPA-mediated activation of ATX); format: biochemical; parameters: made in house; settings: inhibitor at concentrations close to or lower than IC50; 150 μM 18:1 LPC, 18:1 LPA, 20 nM ATX
Description: The activation assays using LPA were performed in a similar way to those done for the inhibitors. In this case, LPA was dissolved in ethanol/H20 (1:1) and 0.01% TX-100 and was added to the reaction buffer. The presence of ethanol was taken into account, and controls in the absence of ATX and/or LPC were employed to correct the kinetic data. ATX was incubated for 30 min with different concentrations of inhibitors and subsequently added to the reaction buffer containing 150 μM 18:1 LPC and different starting concentrations of 18:1 LPA. The slopes were calculated from at least 60 min after the addition of ATX. The percentage of LPA-driven activation was normalized to ATX in the absence of LPA and inhibitors, which represented 100% activity. Last, the activation constant or AC50 was obtained from the following equation [drawing 2] 2

SMILES | IC50 ([1]; LPC hydrolysis assay) | Residual Activity (%) ([1]; LPC hydrolysis assay) | also measured
C[C@H](CCC(=O)N1CC[C@H](Oc2ccc(B3OC(C)(C)C(C)(C)O3)cc2)C1)[C@H]1CC[C@H]2C3[C@@H](O)C[C@@H]4C[C@H](O)CC[C@]4(C)[C@H]3CC[C@]12C (stereo partly drawn) [Compound 21] | 200 nM | 10% | 
C[C@H](CCC(=O)NCCOc1ccc(B2OC(C)(C)C(C)(C)O2)cc1)[C@H]1CC[C@H]2C3[C@@H](O)C[C@@H]4C[C@H](O)CC[C@]4(C)[C@H]3CC[C@]12C (stereo partly drawn) [Compound 14] | 1500 nM | 1.4% | fold increase in potency over meta-substituted pinacol boronate 13 ([1]; ethyl-linked, para against meta): 10 fold
C[C@H](CCC(=O)N1CCC(Oc2ccc(B3OC(C)(C)C(C)(C)O3)cc2)CC1)[C@H]1CC[C@H]2C3[C@@H](O)C[C@@H]4C[C@H](O)CC[C@]4(C)[C@H]3CC[C@]12C (stereo partly drawn) [Compound 19] | 80 nM | 0% | 
COc1ccc(B(O)O)cc1 [Compound 7] |  |  | inhibition at 100 µM [1]: 37%
C[C@H](CCC(=O)NCCCOc1ccc([B-](F)(F)F)cc1)[C@H]1CC[C@H]2C3[C@@H](O)C[C@@H]4C[C@H](O)CC[C@]4(C)[C@H]3CC[C@]12C.[Na+] (stereo partly drawn) [Compound 17] | 70 nM | 1.1% | 
C[C@H](CCC(=O)NCCOc1cccc(B2OC(C)(C)C(C)(C)O2)c1)[C@H]1CC[C@H]2C3[C@@H](O)C[C@@H]4C[C@H](O)CC[C@]4(C)[C@H]3CC[C@]12C (stereo partly drawn) [Compound 13] | 14000 nM | 14.7% | 
COc1ccc([B-](F)(F)F)cc1 [Compound 6] |  |  | inhibition at 100 µM [1]: 57%
C[C@H](CCC(=O)NCCCOc1ccc(B2OC(C)(C)C(C)(C)O2)cc1)[C@H]1CC[C@H]2C3[C@@H](O)C[C@@H]4C[C@H](O)CC[C@]4(C)[C@H]3CC[C@]12C (stereo partly drawn) [Compound 16] | 70 nM | 0.3% | 
C[C@H](CCC(=O)NCCOc1ccc(S(N)(=O)=O)cc1)[C@H]1CC[C@H]2C3[C@@H](O)C[C@@H]4C[C@H](O)CC[C@]4(C)[C@H]3CC[C@]12C (stereo partly drawn) [Compound 11] | > 10000 nM | 31% | 
C[C@H](CCC(=O)N1CC[C@@H](Oc2ccc(B3OC(C)(C)C(C)(C)O3)cc2)C1)[C@H]1CC[C@H]2C3[C@@H](O)C[C@@H]4C[C@H](O)CC[C@]4(C)[C@H]3CC[C@]12C (stereo partly drawn) [Compound 20] | 210 nM | 8% | 
C[C@H](CCC(=O)NCCCCOc1ccc(S(N)(=O)=O)cc1)[C@H]1CC[C@H]2C3[C@@H](O)C[C@@H]4C[C@H](O)CC[C@]4(C)[C@H]3CC[C@]12C (stereo partly drawn) [Compound 12] | > 10000 nM | 66% | 
C[C@H](CCC(=O)N1CCC(Oc2ccc([B-](F)(F)F)cc2)CC1)[C@H]1CC[C@H]2C3[C@@H](O)C[C@@H]4C[C@H](O)CC[C@]4(C)[C@H]3CC[C@]12C.[K+] (stereo partly drawn) [Compound 22] | 50 nM | 0% | decrease of LPA1 internalization [2]: approximately 75%; EC50 ([3]; BJeH cells, 20 nM ATX, 1 μM 18:1 LPC, read-out: EC50 (P-AKT and P-ERK levels)): ~100 nM; Emax ([3]; BJeH, compared to uninhibited ATX incubated with LPC, read-out: reduction of maximal effective cell response (P-AKT and P-ERK)): ~60%; percentage of competitive versus non-competitive inhibition ([4]; Akaike's informative criteria): 99%; mode of inhibition ([4]; LPC hydrolysis): competitive; Ki ([4]; LPC titration at increasing inhibitor concentrations, Michaelis-Menten nonlinear regression): 24 ± 4 nM; α (partial mixed inhibition model) ([4]; α > 1 competitive, α = 1 non-competitive): 9.7; LPA-mediated activation of ATX activity [5]: dose-dependent decrease; IC50 ([1]; 14:0 LPC, 150 μM LPC): 84 nM; Residual Activity (%) ([1]; 14:0 LPC, 150 μM LPC): 1%; IC50 ([1]; 16:0 LPC, 150 μM LPC): 72 nM; Residual Activity (%) ([1]; 16:0 LPC, 150 μM LPC): 12%; IC50 ([1]; 18:1 LPC, 150 μM LPC): 45 nM; Residual Activity (%) ([1]; 18:1 LPC, 150 μM LPC): 5%; IC50 ([1]; 20:0 LPC, 150 μM LPC): 32 nM; Residual Activity (%) ([1]; 20:0 LPC, 150 μM LPC, % of catalytic rate of inhibitor-free control): 49%
C[C@H](CCC(=O)NCCCOc1ccc(B(O)O)cc1)[C@H]1CC[C@H]2C3[C@@H](O)C[C@@H]4C[C@H](O)CC[C@]4(C)[C@H]3CC[C@]12C (stereo partly drawn) [Compound 18] | 50 nM | 0.6% | 
C[C@H](CCC(=O)NCCCOc1ccc(S(N)(=O)=O)cc1)[C@H]1CC[C@H]2C3[C@@H](O)C[C@@H]4C[C@H](O)CC[C@]4(C)[C@H]3CC[C@]12C (stereo partly drawn) [Compound 10] | 400 nM | 75% | 
C[C@H](CCC(=O)NCCCOc1cccc(B2OC(C)(C)C(C)(C)O2)c1)[C@H]1CC[C@H]2C3[C@@H](O)C[C@@H]4C[C@H](O)CC[C@]4(C)[C@H]3CC[C@]12C (stereo partly drawn) [Compound 15] | 150 nM | 1.7% | 
